Test results from article PMC9952374, “De Novo Design of Imidazopyridine-Tethered Pyrazolines That Target Phosphorylation of STAT3 in Human Breast Cancer Cells” (Bioengineering, 2023).

What was measured:
T47D cells = experiment: Alamar Blue cell viability assay, T47D; assay type: cell-based, human; conditions: T47D cell viability, Alamar Blue
Excerpt: (§1) The goal herein was to assess the ability of imidazopyridine-tethered pyrazolines to inhibit cell viability in mammary carcinoma cells (using the Alamar Blue assay), since pyridine-fused pyrazoles were previously shown to inhibit cell viability in various breast cancer cells. […] The low chemical stability of thio-urea-based compounds may account for the inactivity of most thiourea-conjugated pyrazolines (excluding 4g) against TNBC cells.
(§2) MCF-7 cells were procured from Procell Life Science and Technology Co. LTD, Wuhan, China. Human breast cancer T47D, BT474, and SK-BR-3 cells were obtained from American Type Culture Collection (Washington, DC, NW, USA). Cells (2000) were cultured in MEM or Leibovitz’s L-15 medium enriched with 2% FBS and maintained in a humidified atmosphere of 5% CO2 at 37 °C. A stock solution of DMSO-dissolved compounds was prepared, and this solution was diluted with culture medium as required. MCF-7 Cells (4 × 10^3) were cultured in 96-well plates for 12 h and then treated for 72 h with compounds at concentrations of […]. Using Alamar Blue, the compounds were evaluated for their inhibitory effects

MCF-10A cells = experiment: Alamar Blue cell viability assay, normal MCF-10A; assay type: cell-based; conditions: normal MCF-10A cell viability
BT-474 cells = experiment: Alamar Blue cell viability assay, BT-474; assay type: cell-based, human; conditions: BT-474 cell viability, Alamar Blue
Excerpt: as §1, §2

MCF-7 cells = experiment: Alamar Blue cell viability assay, MCF-7; assay type: cell-based, human; conditions: MCF-7 cell viability
Excerpt: as §1, §2
Figure 2 Inhibitory effect of compounds 3f (A), 3e (B), 4g (C), and 3g (D) on the viability of MCF-7 cells. MCF-7 cells were treated with various concentrations of 2-pyrazolines for 72 h and the viability of cells was analyzed by Alamar Blue assays. The results are presented as mean ± S.E.M. of triplicate determinations.

SK-BR-3 cells = experiment: Alamar Blue cell viability assay, SK-BR-3; assay type: cell-based, human; conditions: SK-BR-3 cell viability
Excerpt: as §1, §2

TNBC cells = experiment: Effect against TNBC cells; assay type: cell-based; conditions: in words
Excerpt: as §1

Compound: CC(=O)N1N=C(c2c(C)nc3ccc(C)cn23)CC1c1cccc([N+](=O)[O-])c1 (centres unmarked) [Compound 2, 1-(3-(2,6-Dimethylimidazo[1,2-a]pyridin-3-yl)-5-(3-nitrophenyl)-4,5-dihydro-1H-pyrazol-1-yl)ethanone]
- IC50 (T47D cells; Homo sapiens): > 100 µM
- melting point: 166 to 168 °C
- IC50 (MCF-10A cells; Homo sapiens): > 100 µM
- IC50 (BT-474 cells; Homo sapiens): 97.8 ± 1.76 µM
- IC50 (MCF-7 cells; Homo sapiens, MCF7, 72 h): > 100 µM
- IC50 (SK-BR-3 cells; Homo sapiens): > 100 µM

Compound: Cc1ccc2nc(C)c(C3=NN(C(=O)CN4CCC(=O)CC4)C(c4cccc([N+](=O)[O-])c4)C3)n2c1 (centres unmarked) [Compound 3a, 1-(2-(3-(2,6-Dimethylimidazo[1,2-a]pyridin-3-yl)-5-(3-nitrophenyl)-4,5-dihydro-1H-pyrazol-1-yl)-2-oxoethyl)piperidin-4-one]
- IC50 (T47D cells; Homo sapiens): 23.3 ± 1.28 µM
- melting point: 170 to 172 °C
- IC50 (MCF-10A cells; Homo sapiens): > 100 µM
- IC50 (BT-474 cells; Homo sapiens): 4.11 ± 0.41 µM
- IC50 (MCF-7 cells; Homo sapiens, MCF7, 72 h): 22.8 ± 1.36 µM
- IC50 (SK-BR-3 cells; Homo sapiens): > 100 µM

Compound: Cc1ccc2nc(C)c(C3=NN(C(=O)CN4CCN(C(=O)OC(C)(C)C)CC4)C(c4cccc([N+](=O)[O-])c4)C3)n2c1 (centres unmarked) [Compound 3b, Tert-butyl-4-(2-(3-(2,6-dimethylimidazo[1,2-a]pyridin-3-yl)-5-(3-nitrophenyl)-4,5-dihydro-1H-pyrazol-1-yl)-2-oxoethyl)piperazine-1-carboxylate]
- IC50 (T47D cells; Homo sapiens): 15.2 ± 1.13 µM
- melting point: 166 to 168 °C
- IC50 (MCF-10A cells; Homo sapiens): > 100 µM
- IC50 (BT-474 cells; Homo sapiens): 21.3 ± 1.32 µM
- IC50 (MCF-7 cells; Homo sapiens, MCF7, 72 h): 22.3 ± 1.35 µM
- IC50 (SK-BR-3 cells; Homo sapiens): 28.3 ± 1.34 µM

Compound: Cc1ccc2nc(C)c(C3=NN(C(=O)CN4CCNCC4)C(c4cccc([N+](=O)[O-])c4)C3)n2c1 (centres unmarked) [Compound 3c, 1-(3-(2,6-Dimethylimidazo[1,2-a]pyridin-3-yl)-5-(3-nitrophenyl)-4,5-dihydro-1H-pyrazol-1-yl)-2-(piperazin-1-yl)ethanone]
- IC50 (T47D cells; Homo sapiens): 40 ± 1.49 µM
- melting point: 176 to 178 °C
- IC50 (MCF-10A cells; Homo sapiens): > 100 µM
- IC50 (BT-474 cells; Homo sapiens): 26.8 ± 1.37 µM
- IC50 (MCF-7 cells; Homo sapiens, MCF7, 72 h): 29.3 ± 1.47 µM
- IC50 (SK-BR-3 cells; Homo sapiens): 95.2 ± 1.79 µM

Compound: CC(=O)N1CCN(CC(=O)N2N=C(c3c(C)nc4ccc(C)cn34)CC2c2cccc([N+](=O)[O-])c2)CC1 (centres unmarked) [Compound 3d, 2-(4-Acetylpiperazin-1-yl)-1-(3-(2,6-dimethylimidazo[1,2-a]pyridin-3-yl)-5-(3-nitrophenyl)-4,5-dihydro-1H-pyrazol-1-yl)ethanone]
- IC50 (T47D cells; Homo sapiens): > 100 µM
- melting point: 208 to 210 °C
- IC50 (MCF-10A cells; Homo sapiens): > 100 µM
- IC50 (BT-474 cells; Homo sapiens): 8.04 ± 0.47 µM
- IC50 (MCF-7 cells; Homo sapiens, MCF7, 72 h): 21 ± 1.32 µM
- IC50 (SK-BR-3 cells; Homo sapiens): 32.1 ± 1.46 µM

Compound: Cc1ccc2nc(C)c(C3=NN(C(=O)CN4CCN(c5ccc(Cl)cc5)CC4)C(c4cccc([N+](=O)[O-])c4)C3)n2c1 (centres unmarked) [Compound 3e, 2-(4-(4-Chlorophenyl)piperazin-1-yl)-1-(3-(2,6-dimethylimidazo[1,2-a]pyridin-3-yl)-5-(3-nitrophenyl)-4,5-dihydro-1H-pyrazol-1-yl)ethanone]
- IC50 (T47D cells; Homo sapiens): 29.9 ± 1.05 µM
- melting point: 180 to 182 °C
- IC50 (MCF-10A cells; Homo sapiens): 38.3 ± 1.44 µM
- IC50 (BT-474 cells; Homo sapiens): 17.6 ± 0.87 µM
- IC50 (MCF-7 cells; Homo sapiens, MCF7, 72 h): 13.2 ± 1.12 µM
- IC50 (SK-BR-3 cells; Homo sapiens): 39.1 ± 1.46 µM

Compound: Cc1ccc2nc(C)c(C3=NN(C(=O)CN4CCN(c5ccc(Cl)cc5F)CC4)C(c4cccc([N+](=O)[O-])c4)C3)n2c1 (centres unmarked) [Compound 3g, 2-(4-(4-Chloro-2-fluorophenyl)piperazin-1-yl)-1-(3-(2,6-dimethylimidazo[1,2-a]pyridin-3-yl)-5-(3-nitrophenyl)-4,5-dihydro-1H-pyrazol-1-yl)ethanone]
- IC50 (T47D cells; Homo sapiens): 86.5 ± 1.95 µM
- melting point: 196 to 198 °C
- IC50 (MCF-10A cells; Homo sapiens): 8.69 ± 0.69 µM
- IC50 (BT-474 cells; Homo sapiens): 63.2 ± 1.75 µM
- IC50 (MCF-7 cells; Homo sapiens, MCF7, 72 h): 19.4 ± 1.29 µM
- IC50 (SK-BR-3 cells; Homo sapiens): 100 ± 1.98 µM

Compound: Cc1ccc2nc(C)c(C3=NN(C(=O)CN4CCN(c5ccc(F)c(F)c5)CC4)C(c4cccc([N+](=O)[O-])c4)C3)n2c1 (centres unmarked) [Compound 3h, 2-(4-(3,4-Difluorophenyl)piperazin-1-yl)-1-(3-(2,6-dimethylimidazo[1,2-a]pyridin-3-yl)-5-(3-nitrophenyl)-4,5-dihydro-1H-pyrazol-1-yl)ethanone]
- effect against TNBC cells (TNBC cells): significant effect
- IC50 (T47D cells; Homo sapiens): 12.5 ± 1.01 µM
- melting point: 192 to 194 °C
- IC50 (MCF-10A cells; Homo sapiens): 6.27 ± 0.26 µM
- IC50 (BT-474 cells; Homo sapiens): 3.06 ± 0.32 µM
- IC50 (MCF-7 cells; Homo sapiens, MCF7, 72 h): 19.6 ± 1.29 µM
- IC50 (SK-BR-3 cells; Homo sapiens): 38.8 ± 1.42 µM

Compound: Cc1ccc2nc(C)c(C3=NN(C(=O)CN4CCN(c5ccccc5F)CC4)C(c4cccc([N+](=O)[O-])c4)C3)n2c1 (centres unmarked) [Compound 3i, 1-(3-(2,6-Dimethylimidazo[1,2-a]pyridin-3-yl)-5-(3-nitrophenyl)-4,5-dihydro-1H-pyrazol-1-yl)-2-(4-(2-fluorophenyl)piperazin-1-yl)ethanone]
- IC50 (T47D cells; Homo sapiens): > 100 µM
- melting point: 160 to 162 °C
- IC50 (MCF-10A cells; Homo sapiens): > 100 µM
- IC50 (BT-474 cells; Homo sapiens): > 100 µM
- IC50 (MCF-7 cells; Homo sapiens, MCF7, 72 h): 63.7 ± 1.8 µM
- IC50 (SK-BR-3 cells; Homo sapiens): > 100 µM

Compound: Cc1ccc2nc(C)c(C3=NN(C(=S)Nc4ccccc4)C(c4cccc([N+](=O)[O-])c4)C3)n2c1 (centres unmarked) [Compound 4a, 3-(2,6-Dimethylimidazo[1,2-a]pyridin-3-yl)-5-(3-nitrophenyl)-N-phenyl-4,5-dihydro-1H-pyrazoline-1-carbothioamide]
- IC50 (T47D cells): > 100 µM
- IC50 (MCF-10A cells): > 100 µM
- IC50 (BT-474 cells): > 100 µM
- IC50 (MCF-7 cells; 72 h): 81.4 ± 1.91 µM
- IC50 (SK-BR-3 cells): > 100 µM

Compound: Cc1ccc2nc(C)c(C3=NN(C(=S)Nc4ccc([N+](=O)[O-])cc4)C(c4cccc([N+](=O)[O-])c4)C3)n2c1 (centres unmarked) [Compound 4b, 3-(2,6-Dimethylimidazo[1,2-a]pyridin-3-yl)-5-(3-nitrophenyl)-N-(4-nitrophenyl)-4,5-dihydro-1H-pyrazole-1-carbothioamide]
- effect against TNBC cells (TNBC cells): significant effect
- IC50 (T47D cells; Homo sapiens): 45.6 ± 1.43 µM
- melting point: 230 to 232 °C
- IC50 (MCF-10A cells; Homo sapiens): > 100 µM
- IC50 (BT-474 cells; Homo sapiens): 7.26 ± 0.54 µM
- IC50 (MCF-7 cells; Homo sapiens, MCF7, 72 h): 65.4 ± 1.82 µM
- IC50 (SK-BR-3 cells; Homo sapiens): 69 ± 1.41 µM

Compound: Cc1ccc2nc(C)c(C3=NN(C(=S)NC4CCCCC4)C(c4cccc([N+](=O)[O-])c4)C3)n2c1 (centres unmarked) [Compound 4c, N-Cyclohexyl-3-(2,6-dimethylimidazo[1,2-a]pyridin-3-yl)-5-(3-nitrophenyl)-4,5-dihydro-1H-pyrazoline-1-carbothioamide]
- IC50 (T47D cells): > 100 µM
- IC50 (MCF-10A cells): > 100 µM
- IC50 (BT-474 cells): 52.8 ± 1.54 µM
- IC50 (MCF-7 cells; 72 h): 46.1 ± 1.66 µM
- IC50 (SK-BR-3 cells): > 100 µM

Compound: Cc1ccc2nc(C)c(C3=NN(C(=S)Nc4cccc(Cl)c4)C(c4cccc([N+](=O)[O-])c4)C3)n2c1 (centres unmarked) [Compound 4e, N-(3-Chlorophenyl)-3-(2,6-dimethylimidazo[1,2-a]pyridin-3-yl)-5-(3-nitrophenyl)-4,5-dihydro-1H-pyrazoline-1-carbothioamide]
- IC50 (T47D cells): > 100 µM
- IC50 (MCF-10A cells): > 100 µM
- IC50 (BT-474 cells): > 100 µM
- IC50 (MCF-7 cells; 72 h): > 100 µM
- IC50 (SK-BR-3 cells): > 100 µM

Compound: Cc1ccc(NC(=S)N2N=C(c3c(C)nc4ccc(C)cn34)CC2c2cccc([N+](=O)[O-])c2)cc1 (centres unmarked) [Compound 4f, 3-(2,6-Dimethylimidazo[1,2-a]pyridin-3-yl)-5-(3-nitrophenyl)-N-(p-tolyl)-4,5-dihydro-1H-pyrazoline-1-carbothioamide]
- IC50 (T47D cells): > 100 µM
- IC50 (MCF-10A cells): > 100 µM
- IC50 (BT-474 cells): > 100 µM
- IC50 (MCF-7 cells; 72 h): 56.9 ± 1.39 µM
- IC50 (SK-BR-3 cells): > 100 µM

Compound: Cc1ccc2nc(C)c(C3=NN(C(=S)Nc4cc(C(F)(F)F)cc(C(F)(F)F)c4)[C@@H](c4cccc([N+](=O)[O-])c4)C3)n2c1 [Compound 4g, N-(3,5-Bis(trifluoromethyl)phenyl)-3-(2,6-dimethylimidazo[1,2-a]pyridin-3-yl)-5-(3-nitrophenyl)-4,5-dihydro-1H-pyrazoline-1-carbothioamide]
- IC50 (T47D cells; Homo sapiens): > 100 µM
- melting point: 230 to 232 °C
- IC50 (MCF-10A cells; Homo sapiens): > 100 µM
- IC50 (BT-474 cells; Homo sapiens): > 100 µM
- IC50 (MCF-7 cells; Homo sapiens, MCF7, 72 h): 10.9 ± 1.01 µM
- IC50 (SK-BR-3 cells; Homo sapiens): > 100 µM

Compound: N-(4-Chlorophenyl)-3-(2,6-dimethylimidazo[1,2-a]pyridin-3-yl)-5-(3-nitrophenyl)-4,5-dihydro-1H-pyrazoline-1-carbothioamide [Compound 4d]
- IC50 (T47D cells): > 100 µM
- IC50 (MCF-10A cells): > 100 µM
- IC50 (BT-474 cells): > 100 µM
- IC50 (MCF-7 cells; 72 h): > 100 µM
- IC50 (SK-BR-3 cells): > 100 µM

Compound: N-Butyl-3-(2,6-dimethylimidazo[1,2-a]pyridin-3-yl)-5-(3-nitrophenyl)-4,5-dihydro-1H-pyrazoline-1-carbothioamide [Compound 4h]
- IC50 (T47D cells): 54.4 ± 1.68 µM
- IC50 (MCF-10A cells): 90.6 ± 1.98 µM
- IC50 (BT-474 cells): > 100 µM
- IC50 (MCF-7 cells; 72 h): > 100 µM
- IC50 (SK-BR-3 cells): > 100 µM
